# Laboratory results: US20250084056A1, “SUBSTITUTED OXOISOINDOLINYL PIPERIDINE-2,6-DIONE COMPOUNDS” (BRISTOL-MYERS SQUIBB COMPANY, priority 2023, published 2025)
# Key:
# Assay type in all cases: cell-based
# GSPT1 = GSPT1 (Homo sapiens, UniProt P15170+Q96SW2); experiment: GSPT1 Cellular Degradation Assay (DF15-GSPT1-ePL); design: expressed in transfected cells; settings: DF15-GSPT1-ePL cells, 20 hours
# Summary of the method: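 Human DF15 cells co-expressing a GSPT1–ePL fusion were treated with compound in RPMI 1640/10% FBS for 20 h at 37 °C. GSPT1 level was read by enzyme-fragment-complementation luminescence after 60 min with detection reagent. The reference degrader at […] defined 75% response; DC50 and Dmax were reported.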
# Cyclin E1 = Cyclin E1 (Homo sapiens, UniProt P24864+Q96SW2); experiment: Cyclin E1 Cellular Degradation Assay (MSD); design: endogenous in cells; host or cells: OVCAR3; settings: for DC50 / Dmax: Cyclin E1 cellular degradation; for Dmax: maximum degradation; for Ratio of GSPT1 DC50/Cyclin E1 DC50: selectivity for degradation of Cyclin E1 over GSPT1
# Summary of the method: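 OVCAR3 cells treated with compound for 24 h at 37 °C, lysed, and cyclin E1 measured by MSD sandwich immunoassay (rabbit capture, mouse detection anti-CCNE1). Reference degrader at […] defined 110% response; DC50 and Dmax derived from response.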
# Phospho-Rb (Ser807/811) = experiment: Phospho-Retinoblastoma (pRB) Cellular Assay; settings: Homo sapiens, OVCAR-3, NIH OVCAR3 cells, 24 hours; for IC50: concentration giving 50% response; for Emax: maximum response, reference compound at 10 μM = 100%, read-out: pRB Ymax
# Summary of the method: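 OVCAR3 cells seeded overnight, then dosed with serial dilutions for 24 h at 37° C. Lysed with kit mix plus phosphatase inhibitor, ≥4 h at room temperature, read on EnVision; 100% response set by reference compound at 10 μM, giving IC50 and Ymax.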
# Chain of Cyclin E1 (P24864 whole entry): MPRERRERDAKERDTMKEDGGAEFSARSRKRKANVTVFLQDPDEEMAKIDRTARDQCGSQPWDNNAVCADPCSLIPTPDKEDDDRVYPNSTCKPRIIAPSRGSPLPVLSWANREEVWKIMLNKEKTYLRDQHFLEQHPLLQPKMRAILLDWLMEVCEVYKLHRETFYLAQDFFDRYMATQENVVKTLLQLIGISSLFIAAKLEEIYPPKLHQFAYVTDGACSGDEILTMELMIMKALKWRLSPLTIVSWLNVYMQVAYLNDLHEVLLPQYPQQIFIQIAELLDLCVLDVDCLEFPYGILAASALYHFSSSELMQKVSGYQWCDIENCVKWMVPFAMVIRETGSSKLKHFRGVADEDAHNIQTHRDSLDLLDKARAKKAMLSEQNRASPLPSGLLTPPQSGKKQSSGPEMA
# Chain of Cyclin E1 (Q96SW2 whole entry): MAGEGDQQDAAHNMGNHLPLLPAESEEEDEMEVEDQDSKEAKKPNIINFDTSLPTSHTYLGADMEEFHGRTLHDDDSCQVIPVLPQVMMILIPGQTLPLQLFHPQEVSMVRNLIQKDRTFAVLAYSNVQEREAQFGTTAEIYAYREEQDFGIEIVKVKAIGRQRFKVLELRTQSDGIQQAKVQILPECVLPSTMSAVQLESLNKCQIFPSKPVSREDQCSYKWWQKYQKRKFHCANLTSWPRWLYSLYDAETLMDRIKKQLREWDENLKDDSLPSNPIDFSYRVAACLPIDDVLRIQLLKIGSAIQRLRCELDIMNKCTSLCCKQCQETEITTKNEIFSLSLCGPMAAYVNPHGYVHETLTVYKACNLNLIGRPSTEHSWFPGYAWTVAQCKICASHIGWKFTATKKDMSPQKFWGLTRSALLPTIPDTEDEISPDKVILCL
# Chain of Cyclin E1 (Q16531 whole entry partner): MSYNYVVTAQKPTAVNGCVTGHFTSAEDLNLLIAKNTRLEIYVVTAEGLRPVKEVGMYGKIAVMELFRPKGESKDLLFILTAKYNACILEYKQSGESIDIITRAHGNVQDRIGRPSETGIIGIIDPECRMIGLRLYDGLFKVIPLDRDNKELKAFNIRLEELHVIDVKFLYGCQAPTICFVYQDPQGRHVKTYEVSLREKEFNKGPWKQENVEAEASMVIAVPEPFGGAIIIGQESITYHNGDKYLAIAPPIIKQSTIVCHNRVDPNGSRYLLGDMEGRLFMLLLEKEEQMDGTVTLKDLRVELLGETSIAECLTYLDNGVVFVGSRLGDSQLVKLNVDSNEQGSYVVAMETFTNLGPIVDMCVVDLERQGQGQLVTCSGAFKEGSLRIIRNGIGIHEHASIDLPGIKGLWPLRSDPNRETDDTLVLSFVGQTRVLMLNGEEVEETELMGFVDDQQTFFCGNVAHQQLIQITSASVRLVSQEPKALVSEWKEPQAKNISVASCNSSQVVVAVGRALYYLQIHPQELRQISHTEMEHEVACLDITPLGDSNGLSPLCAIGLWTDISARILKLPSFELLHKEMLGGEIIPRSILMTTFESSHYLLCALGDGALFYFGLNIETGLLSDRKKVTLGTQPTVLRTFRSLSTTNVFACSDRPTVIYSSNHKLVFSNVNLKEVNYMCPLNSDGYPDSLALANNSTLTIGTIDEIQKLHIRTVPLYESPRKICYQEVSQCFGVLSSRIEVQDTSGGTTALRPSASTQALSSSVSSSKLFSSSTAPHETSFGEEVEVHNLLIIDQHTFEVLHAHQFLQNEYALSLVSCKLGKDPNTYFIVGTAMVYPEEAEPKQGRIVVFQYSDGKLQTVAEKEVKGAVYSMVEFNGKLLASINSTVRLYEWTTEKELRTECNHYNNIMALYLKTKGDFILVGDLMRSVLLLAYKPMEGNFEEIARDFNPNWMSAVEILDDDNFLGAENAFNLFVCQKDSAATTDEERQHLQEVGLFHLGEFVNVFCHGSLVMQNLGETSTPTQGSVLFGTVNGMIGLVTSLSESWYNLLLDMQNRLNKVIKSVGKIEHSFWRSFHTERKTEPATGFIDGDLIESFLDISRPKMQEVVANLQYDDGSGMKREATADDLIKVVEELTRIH
# Chain of GSPT1 (P15170 whole entry, the tested form may be a part): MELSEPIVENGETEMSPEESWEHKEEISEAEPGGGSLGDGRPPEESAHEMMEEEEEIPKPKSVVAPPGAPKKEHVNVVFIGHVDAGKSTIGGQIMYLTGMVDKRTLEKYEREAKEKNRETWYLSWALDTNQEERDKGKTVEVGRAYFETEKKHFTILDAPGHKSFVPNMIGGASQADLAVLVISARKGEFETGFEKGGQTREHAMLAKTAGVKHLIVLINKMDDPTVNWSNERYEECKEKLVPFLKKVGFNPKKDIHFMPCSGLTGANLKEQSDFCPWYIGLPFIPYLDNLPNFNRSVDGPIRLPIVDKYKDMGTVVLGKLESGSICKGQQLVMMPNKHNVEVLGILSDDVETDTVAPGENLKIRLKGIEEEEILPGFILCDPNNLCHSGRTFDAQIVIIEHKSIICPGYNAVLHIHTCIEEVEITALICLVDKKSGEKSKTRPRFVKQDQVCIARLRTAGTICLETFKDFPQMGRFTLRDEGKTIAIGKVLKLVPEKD
# Chain of GSPT1 (Q96SW2 whole entry, the tested form may be a part): as the sequence (Q96SW2 whole entry) above
# Chain of GSPT1 (Q16531 whole entry partner, the tested form may be a part): as the sequence (Q16531 whole entry partner) above
SMILES,DC50 (GSPT1) [nM],Dmax (GSPT1) [%],DC50 (Cyclin E1) [nM],Dmax (Cyclin E1) [%],Ratio of GSPT1 DC50/Cyclin E1 DC50 (Cyclin E1),IC50 (Phospho-Rb (Ser807/811)) [nM],Emax (Phospho-Rb (Ser807/811)) [%]
"COc1c(COC(=O)Nc2ccc(Oc3ccc(F)c(F)c3)cc2Cl)ccc2c1C(=O)N(C1CCC(=O)NC1=O)C2 (centres unmarked) [Example 46, [2-(2,6-dioxopiperidin-3-yl)-4-methoxy-3-oxo-2,3-dihydro-1H-isoindol-5-yl]methyl N-[2-chloro-4-(3,4-difluorophenoxy)phenyl]carbamate]",> 14000,42,357,105,>39,376,102
"COc1c(COC(=O)Nc2ccc(Oc3cccc(Br)c3)cc2)ccc2c1C(=O)N(C1CCC(=O)NC1=O)C2 (centres unmarked) [Example 10, [2-(2,6-dioxopiperidin-3-yl)-4-methoxy-3-oxo-2,3-dihydro-1H-isoindol-5-yl]methyl N-[4-(3-bromophenoxy)phenyl]carbamate]",> 14000,54,114,106,>123,352,105
"CC(C)(O)COc1c(COC(=O)Nc2ccc(Oc3cc(F)c(F)c(F)c3)cc2F)ccc2c1C(=O)N(C1CCC(=O)NC1=O)C2 (centres unmarked) [Example 165, [2-(2,6-dioxopiperidin-3-yl)-4-(2-hydroxy-2-methylpropoxy)-3-oxo-2,3-dihydro-1H-isoindol-5-yl]methyl N-[2-fluoro-4-(3,4,5-trifluorophenoxy)phenyl]carbamate]",> 14000,10,42,107,>332,28,133
"CC(=O)N1CCC(Oc2c(COC(=O)Nc3ccc(Oc4ccc(F)c(F)c4)cc3)ccc3c2C(=O)N(C2CCC(=O)NC2=O)C3)CC1 (centres unmarked) [Example 179, {4-[(1-acetylpiperidin-4-yl)oxy]-2-(2,6-dioxopiperidin-3-yl)-3-oxo-2,3-dihydro-1H-isoindol-5-yl}methyl N-[4-(3,4-difluorophenoxy)phenyl]carbamate]",> 14000,10,224,104,>62,42,140
"O=C1CCC(N2Cc3ccc(COC(=O)Nc4ccc(Oc5ccc(F)c(F)c5)cc4)c(OCC(=O)N4CCOCC4)c3C2=O)C(=O)N1 (centres unmarked) [Example 178, [2-(2,6-dioxopiperidin-3-yl)-4-[2-(morpholin-4-yl)-2-oxoethoxy]-3-oxo-2,3-dihydro-1H-isoindol-5-yl]methyl N-[4-(3,4-difluorophenoxy)phenyl]carbamate]",> 14000,16,110,105,>127,131,126
"COc1c(COC(=O)Nc2ccc(Nc3cccc(F)c3)cc2)ccc2c1C(=O)N(C1CCC(=O)NC1=O)C2 (centres unmarked) [Example 9, [2-(2,6-dioxopiperidin-3-yl)-4-methoxy-3-oxo-2,3-dihydro-1H-isoindol-5-yl]methyl N-{4-[(3-fluorophenyl)amino]phenyl}carbamate]",> 14000,38,648,86,>22,3010,85
"CC(C)Oc1c(COC(=O)Nc2ccc(Oc3ccc(F)c(F)c3)cc2F)ccc2c1C(=O)N(C1CCC(=O)NC1=O)C2 (centres unmarked) [Example 119, [2-(2,6-dioxopiperidin-3-yl)-3-oxo-4-(propan-2-yloxy)-2,3-dihydro-1H-isoindol-5-yl]methyl N-[4-(3,4-difluorophenoxy)-2-fluorophenyl]carbamate]",> 14000,10,116,107,>120,54,111
"COc1c(COC(=O)Nc2ccc(Oc3cccc(Cl)c3Cl)cc2F)ccc2c1C(=O)N(C1CCC(=O)NC1=O)C2 (centres unmarked) [Example 116, [2-(2,6-dioxopiperidin-3-yl)-4-methoxy-3-oxo-2,3-dihydro-1H-isoindol-5-yl]methyl N-[4-(2,3-dichlorophenoxy)-2-fluorophenyl]carbamate]",> 14000,43,87,110,>160,73,107
"COc1c(COC(=O)Nc2ccc(Oc3ccc(F)c(F)c3)cc2F)ccc2c1C(=O)N(C1CCC(=O)NC1=O)C2 (centres unmarked) [Example 23, [2-(2,6-dioxopiperidin-3-yl)-4-methoxy-3-oxo-2,3-dihydro-1H-isoindol-5-yl]methyl N-[4-(3,4-difluorophenoxy)-2-fluorophenyl]carbamate]",> 14000,27,71,105,>196,158,97
"CC(C)Oc1c(COC(=O)Nc2ccc(Oc3ccc(F)cc3)cc2)ccc2c1C(=O)N(C1CCC(=O)NC1=O)C2 (centres unmarked) [Example 59, [2-(2,6-dioxopiperidin-3-yl)-3-oxo-4-(propan-2-yloxy)-2,3-dihydro-1H-isoindol-5-yl]methyl N-[4-(4-fluorophenoxy)phenyl]carbamate]",> 14000,48,131,104,>107,175,113

# More lines, main results first:
DC50 (GSPT1) [nM],Dmax (GSPT1) [%],DC50 (Cyclin E1) [nM],Dmax (Cyclin E1) [%],Ratio of GSPT1 DC50/Cyclin E1 DC50 (Cyclin E1),IC50 (Phospho-Rb (Ser807/811)) [nM],SMILES,Emax (Phospho-Rb (Ser807/811)) [%]
10300,63,217,108,48,247,"COc1c(COC(=O)Nc2ccc(Oc3ccc4ccsc4c3)cc2)ccc2c1C(=O)N(C1CCC(=O)NC1=O)C2 (centres unmarked) [Example 115, [2-(2,6-dioxopiperidin-3-yl)-4-methoxy-3-oxo-2,3-dihydro-1H-isoindol-5-yl]methyl N-[4-(1-benzothiophen-6-yloxy)phenyl]carbamate]",114
> 14000,9,41,108,>339,128,"COc1c(COC(=O)Nc2ccc(Oc3cc(F)c(F)c(F)c3)cc2C)ccc2c1C(=O)N(C1CCC(=O)NC1=O)C2 (centres unmarked) [Example 40, [2-(2,6-dioxopiperidin-3-yl)-4-methoxy-3-oxo-2,3-dihydro-1H-isoindol-5-yl]methyl N-[2-methyl-4-(3,4,5-trifluorophenoxy)phenyl]carbamate]",110
> 14000,24,67,96,>208,498,"COc1cccc(Oc2ccc(NC(=O)OCc3ccc4c(c3OC)C(=O)N(C3CCC(=O)NC3=O)C4)cc2)c1 (centres unmarked) [Example 32, [2-(2,6-dioxopiperidin-3-yl)-4-methoxy-3-oxo-2,3-dihydro-1H-isoindol-5-yl]methyl N-[4-(3-methoxyphenoxy)phenyl]carbamate]",83
> 14000,47,57,106,>245,178,"COc1c(COC(=O)Nc2ccc(Oc3cc(F)ccc3Cl)cc2)ccc2c1C(=O)N(C1CCC(=O)NC1=O)C2 (centres unmarked) [Example 106, [2-(2,6-dioxopiperidin-3-yl)-4-methoxy-3-oxo-2,3-dihydro-1H-isoindol-5-yl]methyl N-[4-(2-chloro-5-fluorophenoxy)phenyl]carbamate]",113
> 14000,38,129,112,>108,112,"COc1c(COC(=O)Nc2ccc(Oc3cc(F)c(F)cc3F)cc2C)ccc2c1C(=O)N(C1CCC(=O)NC1=O)C2 (centres unmarked) [Example 45, [2-(2,6-dioxopiperidin-3-yl)-4-methoxy-3-oxo-2,3-dihydro-1H-isoindol-5-yl]methyl N-[2-methyl-4-(2,4,5-trifluorophenoxy)phenyl]carbamate]",116
> 14000,6,148,108,>95,55,"CC(C)Oc1c(COC(=O)Nc2ccc(Oc3cccc(F)c3F)cc2)ccc2c1C(=O)N(C1CCC(=O)NC1=O)C2 (centres unmarked) [Example 120, [2-(2,6-dioxopiperidin-3-yl)-3-oxo-4-(propan-2-yloxy)-2,3-dihydro-1H-isoindol-5-yl]methyl N-[4-(2,3-difluorophenoxy)phenyl]carbamate]",121
> 14000,45,1430,92,>10,865,"COc1c(COC(=O)Nc2ccc(C(F)(F)c3ccccc3)cc2)ccc2c1C(=O)N(C1CCC(=O)NC1=O)C2 (centres unmarked) [Example 29, [2-(2,6-dioxopiperidin-3-yl)-4-methoxy-3-oxo-2,3-dihydro-1H-isoindol-5-yl]methyl N-{4-[difluoro(phenyl)methyl]phenyl}carbamate]",99
